From patent US20250136553A1, “ACYLSULFONAMIDE KAT6A INHIBITORS” (Olema Pharmaceuticals, Inc., priority 2023, published 2025) come the findings set out here.

In the test the target is human-KAT6A (MYST domain 507-778 aa) (Homo sapiens (Human), UniProt Q92794). The experiment in a line: KAT6A biochemical assay (TR-FRET). Particulars: for IC50: TR-FRET, histone H4 peptide 200 nM, acetyl-CoA 600 nM, read-out: KAT6A IC50. Put shortly:
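KAT6A MYST domain preincubated with compound 30 min at 25° C, then reacted 60 min at 25° C with 200 nM biotin-H4 peptide and 600 nM acetyl-CoA (final). Europium anti-acetyl-lysine/streptavidin-APC TR-FRET read (Ex 340, Em 615/665 nm); % inhibition from 665/615 ratio, IC50 by sigmoidal fit.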
On the technique in general: TR-FRET usually uses a lanthanide donor and a delayed reading to cut background.

Usually IC50 stands for the midpoint of a concentration-inhibition curve.

Sequence of human-KAT6A (MYST domain 507-778 aa) (Q92794 507-778): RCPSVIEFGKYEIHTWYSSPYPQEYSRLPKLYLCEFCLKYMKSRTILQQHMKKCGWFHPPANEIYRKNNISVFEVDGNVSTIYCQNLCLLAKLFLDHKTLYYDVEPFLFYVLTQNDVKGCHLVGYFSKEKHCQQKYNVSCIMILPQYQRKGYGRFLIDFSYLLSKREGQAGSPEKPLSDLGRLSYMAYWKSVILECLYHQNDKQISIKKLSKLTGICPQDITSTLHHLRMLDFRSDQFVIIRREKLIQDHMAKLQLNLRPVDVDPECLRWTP

For the compound `COc1cccc(OC)c1S(=O)(=O)NC(=O)c1ccc(Cn2cccn2)c(OC(F)(F)F)n1` [Compound 228, 5-((1H-pyrazol-1-yl)methyl)-N-((2,6-dimethoxyphenyl)sulfonyl)-6-(trifluoromethoxy)picolinamide], the IC50 was 21 nM.
For `COc1cccc(OC)c1S(=O)(=O)NC(=O)c1ccc(Cn2cccn2)c(C2CC2)n1` [Compound 229, 5-((1H-pyrazol-1-yl)methyl)-6-cyclopropyl-N-((2,6-dimethoxyphenyl)sulfonyl)picolinamide], the IC50 was found to be 13 nM.
On the same count and under the same terms, then `COc1ccc(C(C)(C)O)cc1S(=O)(=O)NC(=O)c1ccc(Cn2cccn2)c(OC)n1` [Compound 230, 5-((1H-pyrazol-1-yl)methyl)-N-((5-(2-hydroxypropan-2-yl)-2-methoxyphenyl)sulfonyl)-6-methoxypicolinamide], with 11 nM; and `COc1cccc(OC)c1S(=O)(=O)NC(=O)c1ccc(Cn2cccn2)c(C(F)F)n1` [Compound 231, 5-((1H-pyrazol-1-yl)methyl)-6-(difluoromethyl)-N-((2,6-dimethoxyphenyl)sulfonyl)picolinamide], with 14 nM; and `COc1ccccc1S(=N)(=O)NC(=O)c1ccc(Cn2cccn2)c(OC)n1` (stereo not drawn) [Compound 232, 5-((1H-pyrazol-1-yl)methyl)-6-methoxy-N-(2-methoxyphenylsulfonimidoyl)picolinamide], with 95 nM.
On the same count and under the same terms, then `COc1nc(C(=O)NS(=O)(=O)c2cccc3c2CCC3)ccc1Cn1cccn1` [Compound 233, 5-((1H-pyrazol-1-yl)methyl)-N-((2,3-dihydro-1H-inden-4-yl)sulfonyl)-6-methoxypicolinamide], with 94 nM.
The same measure, in the same setting: the figure for `COc1nc(C(=O)NS(=O)(=O)c2ccc3c(c2)CCC3)ccc1Cn1cccn1` [Compound 234, 5-((1H-pyrazol-1-yl)methyl)-N-((2,3-dihydro-1H-inden-5-yl)sulfonyl)-6-methoxypicolinamide] is 42 nM; for `COc1cccc(OC(F)(F)F)c1S(=O)(=O)NC(=O)c1ccc(Cn2cccn2)c(OC)n1` [Compound 235, 5-((1H-pyrazol-1-yl)methyl)-6-methoxy-N-((2-methoxy-6-(trifluoromethoxy)phenyl)sulfonyl)picolinamide] it is 7 nM; for `COc1cccc(OC)c1S(=O)(=O)NC(=O)c1ccc(Cn2cccn2)c(C(F)(F)F)n1` [Compound 236, 5-((1H-pyrazol-1-yl)methyl)-N-((2,6-dimethoxyphenyl)sulfonyl)-6-(trifluoromethyl)picolinamide] it is 4 nM.
For `COc1nc(C(=O)NS(=O)(=O)c2cccc(C(C)(C)O)c2)ccc1Cn1cccn1` [Compound 237, 5-((1H-pyrazol-1-yl)methyl)-N-((3-(2-hydroxypropan-2-yl)phenyl)sulfonyl)-6-methoxypicolinamide], the IC50 is 44 nM.
The same measure, in the same setting: the figure for `COc1cc(OC)c(S(=O)(=O)NC(=O)c2ccc(Cn3cccn3)c(OC)n2)cc1Cl` [Compound 238, 5-((1H-pyrazol-1-yl)methyl)-N-((5-chloro-2,4-dimethoxyphenyl)sulfonyl)-6-methoxypicolinamide] is 37 nM.
As to `CCC(C)(O)c1ccc(OC)c(S(=O)(=O)NC(=O)c2ccc(Cn3cccn3)c(OC)n2)c1` (stereo not drawn) [Compound 239, 5-((1H-pyrazol-1-yl)methyl)-N-((5-(2-hydroxybutan-2-yl)-2-methoxyphenyl)sulfonyl)-6-methoxypicolinamide], the IC50 came to 12 nM.
As for `COc1ccc(C(C)(O)C2CC2)cc1S(=O)(=O)NC(=O)c1ccc(Cn2cccn2)c(OC)n1` (stereo not drawn) [Compound 240, 5-((1H-pyrazol-1-yl)methyl)-N-((5-(1-cyclopropyl-1-hydroxyethyl)-2-methoxyphenyl)sulfonyl)-6-methoxypicolinamide], the IC50 was determined as 11 nM.
The same measure, in the same setting: the figure for `COc1ccc(Cl)c(OC)c1S(=O)(=O)NC(=O)c1ccc(Cn2cccn2)c(OC)n1` [Compound 241, 5-((1H-pyrazol-1-yl)methyl)-N-((3-chloro-2,6-dimethoxyphenyl)sulfonyl)-6-methoxypicolinamide] is 10 nM; for `COc1cc(OC)c(S(=O)(=O)NC(=O)c2ccc(Cn3cccn3)c(OC)n2)cc1Br` [Compound 242, 5-((1H-pyrazol-1-yl)methyl)-N-((5-bromo-2,4-dimethoxyphenyl)sulfonyl)-6-methoxypicolinamide] it is 10 nM; for `COc1cccc(OC)c1S(=N)(=O)NC(=O)c1ccc(Cn2cccn2)c(OC)n1` (stereo not drawn) [Compound 243, 5-((1H-pyrazol-1-yl)methyl)-N-(2,6-dimethoxyphenylsulfonimidoyl)-6-methoxypicolinamide] it is 23 nM.
Still for that read-out and setting: then `COc1cc(OC)c(S(=O)(=O)NC(=O)c2ccc(Cn3cccn3)c(OC)n2)cc1F` [Compound 244, 5-((1H-pyrazol-1-yl)methyl)-N-((5-fluoro-2,4-dimethoxyphenyl)sulfonyl)-6-methoxypicolinamide], with 14 nM.
Still for that read-out and setting: then `COc1cccc(OCC2CC2)c1S(=O)(=O)NC(=O)c1ccc(Cn2cccn2)c(OC)n1` [Compound 245, 5-((1H-pyrazol-1-yl)methyl)-N-((2-(cyclopropylmethoxy)-6-methoxyphenyl)sulfonyl)-6-methoxypicolinamide], with 12 nM; and `COc1cc(OC)c(S(=O)(=O)NC(=O)c2ccc(Cn3cccn3)c(OC)n2)c2c1CCO2` [Compound 253, 5-((1H-pyrazol-1-yl)methyl)-N-((4,6-dimethoxy-2,3-dihydrobenzofuran-7-yl)sulfonyl)-6-methoxypicolinamide], with 9 nM; and `COc1cccc(OC2CCC2)c1S(=N)(=O)NC(=O)c1ccc(Cn2cccn2)c(OC)n1` (stereo not drawn) [Compound 261, 5-((1H-pyrazol-1-yl)methyl)-N-(2-cyclobutoxy-6-methoxyphenylsulfonimidoyl)-6-methoxypicolinamide], with 38 nM.
As for `COc1ccc(S(=N)(=O)NC(=O)c2ccc(Cn3cccn3)c(OC)n2)c(OC)c1` (stereo not drawn) [Compound 262, 5-((1H-pyrazol-1-yl)methyl)-N-(2,4-dimethoxyphenylsulfonimidoyl)-6-methoxypicolinamide], the IC50 was 115 nM.
Turning to `COc1cc(OC)c(S(=N)(=O)NC(=O)c2ccc(Cn3cccn3)c(OC)n2)c(OC)c1` (stereo not drawn) [Compound 263, 5-((1H-pyrazol-1-yl)methyl)-6-methoxy-N-(2,4,6-trimethoxyphenylsulfonimidoyl)picolinamide], the IC50 stood at 36 nM.
Still for that read-out and setting: then `CCc1nc(C(=O)NS(=O)(=O)c2c(OC)cccc2OC)ccc1Cn1cccn1` [Compound 265, 5-((1H-Pyrazol-1-yl)methyl)-N-((2,6-dimethoxyphenyl)sulfonyl)-6-ethylpicolinamide], with 14 nM.
Same read-out and setting: then `COc1ccc(C(C)(C)CO)cc1S(=O)(=O)NC(=O)c1ccc(Cn2cccn2)c(OC)n1` [Compound 266, 5-((1H-Pyrazol-1-yl)methyl)-N-((5-(1-hydroxy-2-methylpropan-2-yl)-2-methoxyphenyl)sulfonyl)-6-methoxypicolinamide], with 10 nM.
Consider `COc1ccc(C(C)(C)C)cc1S(=O)(=O)NC(=O)c1ccc(Cn2cccn2)n(C)c1=O` [Compound 267, 6-((1H-Pyrazol-1-yl)methyl)-N-((5-(tert-butyl)-2-methoxyphenyl)sulfonyl)-1-methyl-2-oxo-1,2-dihydropyridine-3-carboxamide], for which the inhibition at 1 µM (@ 1 μM, reported where IC50 could not be determined, read-out: Percent inhibition at specific concentration (KAT6A)) came to 45%.
With `CCc1c(OC)cc(OC)c(S(=O)(=O)NC(=O)c2ccc(Cn3cccn3)c(OC)n2)c1OC` [Compound 268, 5-((1H-Pyrazol-1-yl)methyl)-N-((3-ethyl-2,4,6-trimethoxyphenyl)sulfonyl)-6-methoxypicolinamide], the IC50 is 16 nM.
Same read-out and setting: the figure for `COc1cc(C#Cc2cccnc2)cc(OC)c1S(=O)(=O)NC(=O)c1ccc(Cn2cccn2)c(OC)n1` [Compound 269, 5-((1H-Pyrazol-1-yl)methyl)-N-((2,6-dimethoxy-4-(pyridin-3-ylethynyl)phenyl)sulfonyl)-6-methoxypicolinamide] is 12 nM; for `[2H]C([2H])([2H])Oc1cc(OC([2H])([2H])[2H])c(S(=O)(=O)NC(=O)c2ccc(Cn3cccn3)c(OC)n2)c(OC([2H])([2H])[2H])c1` [Compound 270, 5-((1H-pyrazol-1-yl)methyl)-6-methoxy-N-((2,4,6-tris(methoxy-d3)phenyl)sulfonyl)picolinamide] it is 6 nM.
Still for that read-out and setting: the figure for `CCc1ccc(OC)c(S(=O)(=O)NC(=O)c2ncc(Cn3cccn3)c(OC)n2)c1` [Compound 271, 5-((1H-Pyrazol-1-yl)methyl)-N-((5-ethyl-2-methoxyphenyl)sulfonyl)-4-methoxypyrimidine-2-carboxamide] is 37 nM; for `COc1cc(OC)c(S(=O)(=O)NC(=O)c2ncc(Cn3cccn3)c(OC)n2)c(OC)c1` [Compound 272, 5-((1H-pyrazol-1-yl)methyl)-4-methoxy-N-((2,4,6-trimethoxyphenyl)sulfonyl)pyrimidine-2-carboxamide] it is 33 nM; for `COc1ccc(C2CC2)cc1S(=O)(=O)NC(=O)c1ncc(Cn2cccn2)c(OC)n1` [Compound 273, 5-((1H-pyrazol-1-yl)methyl)-N-((5-cyclopropyl-2-methoxyphenyl)sulfonyl)-4-methoxypyrimidine-2-carboxamide] it is 34 nM.
As for `COc1cccc(OC)c1S(=O)(=O)NC(=O)c1ncc(Cn2cccn2)c(OC)n1` [Compound 274, 5-((1H-pyrazol-1-yl)methyl)-N-((2,6-dimethoxyphenyl)sulfonyl)-4-methoxypyrimidine-2-carboxamide], the IC50 came out at 30 nM.
The same measure, in the same setting: the figure for `COc1cc(C)cc(OC)c1S(=O)(=O)NC(=O)c1ccc(Cn2cccn2)c(OC)n1` [Compound 275, 5-((1H-pyrazol-1-yl)methyl)-N-((2,6-dimethoxy-4-methylphenyl)sulfonyl)-6-methoxypicolinamide] is 10 nM.
